Experimental findings from patent US6608065B1, “Use of cGMP phosphodiesterase inhibitors in methods to treat female sexual dysfunction” (ICOS Corporation, priority 1995, dated 2003) are described below.

One may read the melting point as the temperature of the solid-liquid transition.

Consider `C[C@H]1C(=O)N2[C@H](c3ccc4c(c3)OCO4)c3[nH]c4ccccc4c3C[C@@H]2C(=O)N1C` [Compound B, (3S, 6R, 12aR)-2,3,6,7,12,12a-hexahydro-2,3-dimethyl-6-(3,4-methylenedioxyphenyl)-pyrazino[2′, 1′:6,1]pyrido[3,4-b]indole-1,4-dione], for which the melting point was 307 to 309 °C.

On to `C[C@@H]1NC(=O)[C@H]2Cc3c([nH]c4ccccc34)[C@@H](c3ccc4c(c3)OCO4)N2C1=O` [Example 3, (3S, 6R,12aR)-2,3,6,7,12,12a-Hexahydro-3-methyl-6-(3,4-methylenedioxyphenyl)-pyrazino[2′, 1′:6,1]pyrido[3,4-b]indole-1,4-dione], for which the melting point was 319 to 321 °C.
